This passage reports Ki and EC50 results from PubChem BioAssay AID2296 (NMMLSC, 2010).

For the test, the target named is Regulator of G-protein signaling 7 (Homo sapiens) (UniProt P49802). The experiment in a line: small molecules altering RGS7 interaction with Galphao – biochemical, multiplexed bead flow cytometry, SAR compounds, SAR follow-up (AID 2296). To be noted: bead-based flow cytometry, AF488-Galphao binding to RGS7; for Ki: measured here: Ki from EC50 fit.
Sequence of Regulator of G-protein signaling 7 (Homo sapiens) (P49802 whole entry, looked up): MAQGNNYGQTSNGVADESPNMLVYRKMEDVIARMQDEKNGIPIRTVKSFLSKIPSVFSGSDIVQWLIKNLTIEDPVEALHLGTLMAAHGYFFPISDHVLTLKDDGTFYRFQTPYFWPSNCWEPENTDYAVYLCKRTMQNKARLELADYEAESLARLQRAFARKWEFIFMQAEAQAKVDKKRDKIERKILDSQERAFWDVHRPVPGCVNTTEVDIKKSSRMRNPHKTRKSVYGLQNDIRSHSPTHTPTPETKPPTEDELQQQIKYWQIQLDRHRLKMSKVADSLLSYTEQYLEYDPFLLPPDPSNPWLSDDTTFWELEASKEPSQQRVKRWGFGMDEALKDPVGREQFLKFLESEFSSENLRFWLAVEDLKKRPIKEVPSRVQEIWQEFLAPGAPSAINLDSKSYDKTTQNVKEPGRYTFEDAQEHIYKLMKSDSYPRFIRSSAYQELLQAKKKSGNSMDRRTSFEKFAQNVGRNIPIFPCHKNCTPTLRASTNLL

Take `CC1(C)OC(=O)C(=Cc2ccc(-c3ccc(S(N)(=O)=O)cc3)o2)C(=O)O1`: the Ki was 1.6 µM.

In turn, `O=C1C(Cl)=C(N2CCCCC2)C(=O)C(Cl)=C1c1cnc(N2CCCCC2)s1` had an inhibition constant (Ki) of 0.13 µM.

For `COc1ccc(C2=CC(=O)C=CC2=O)cc1`, the Ki came to 0.3 µM.

The molecule `Cc1[nH]n(-c2ccccc2)c(=S)c1C=NCCCN=Cc1c(C)[nH]n(-c2ccccc2)c1=S` showed a Ki of 1.87 µM.

`O=C(Cc1csc(N2CCOCC2)n1)N/N=C/c1ccc(O)c(O)c1O` yielded an inhibition constant Ki of 0.36 µM.

Take `NS(=O)(=O)c1ccc(N/N=C/c2ccc(O)c(O)c2O)c([N+](=O)[O-])c1`: the concentration for a half-maximal effect (EC50) was 0.141 µM and the Ki worked out at 0.12 µM.

`CCN(CC)S(=O)(=O)c1cccc(C(=O)N/N=C/c2ccc(O)c(O)c2O)c1` had a Ki of 0.32 µM.

Turning to `CCC(=O)NC(c1ccc(C)cc1)c1cc([N+](=O)[O-])c2cccnc2c1O` (stereo not drawn), the inhibition constant (Ki) stood at 3.75 µM.

Consider `CN=c1scc(C)n1/N=C/c1ccc(O)c(O)c1O`, for which the inhibition constant (Ki) was 0.21 µM.

With `CCN=c1scc(C)n1/N=C/c1ccc(O)c(O)c1O`, the Ki stood at 0.38 µM.

In turn, `CN1CCN(C2=C(Cl)C(=O)C(c3cnc(N4CCCCC4)s3)=C(Cl)C2=O)CC1` showed an inhibition constant (Ki) of 0.07 µM.

Molecule `Nc1c(C(=O)NCC2CCCO2)sc2nc3c(c(-c4ccco4)c12)CC/C3=C/c1ccco1` (stereo not drawn) gave a Ki of 0.12 µM.

A word on the Ki: it is the dissociation constant of the complex between target and ligand, obtained from inhibition or displacement. Lower therefore signals tighter binding. Broadly, the EC50 is the concentration that produces a half-maximal response.
